Test results as given in patent US20110028566A1, “COMPOSITIONS AND PRODUCTS CONTAINING CYCLOALIPHATIC DIOL ANTIMICROBIAL AGENTS AND METHODS OF USING THE COMPOSITIONS AND PRODUCTS” (EASTMAN CHEMICAL COMPANY, priority 2009, published 2011).

Key:
Test in all cases: Microbial challenge testing in BPW
Format in all cases: cell-based
Aeromonas sp. = conditions: for Grade code, Aeromonas sp, 3 Days / Grade code, Aeromonas sp, 14 Days / Grade code, Aeromonas sp, 30 Days: BPW, w/v % in label, average of replicates
In short: (§1)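 Bacteria, including ATCC and wild-type isolates from chemical products, were grown in tryptose soy broth with 1% dextrose for at least 96 hours. Inoculum was sized by plate count and turbidity (NTU) and added to test-material substrates to give 10^5 to 10^6 cfu/mL initially. Incubation ran 14 days at 35° C., then at room temperature.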

Bacillus subtilis = conditions: for Grade code, B. subtilis, 3 Day / Grade code, B. subtilis, 14 Day / Grade code, B. subtilis, 30 Days: BPW, w/v % in label, average of replicates
In short: as §1

Burkholderia cepacia = conditions: for Grade code, B. cepacia, 3 Days / Grade code, B. cepacia, 14 Days / Grade code, B. cepacia, 30 Days: BPW, w/v % in label, average of replicates
In short: as §1

Escherichia coli = conditions: for Grade code, E. coli, 3 Day / Grade code, E. coli, 14 Day / Grade code, E. coli, 30 Day: BPW, w/v % in label, average of replicates
In short: as §1

Proteus vulgaris = tested on: Proteus vulgaris
In short: as §1

[1] = 3 days incubation, listed as 0.5% AB
[2] = 3 days incubation, listed as 1.25% AB
[3] = 3 days incubation, listed as 2.5% AB
[4] = 14 days incubation, listed as 0.5% AB
[5] = 14 days incubation, listed as 1.25% AB
[6] = 14 days incubation, listed as 2.5% AB
[7] = 30 days incubation, listed as 0.5% AB
[8] = 30 days incubation, listed as 1.25% AB
[9] = 30 days incubation, listed as 2.5% AB

## OCC1CCC(CO)CC1 (stereo not drawn) [1,4-CHDM, 1,4-cyclohexanedimethanol]
Aeromonas sp.; 0.5%, 3 days incubation
  Grade code Aeromonas sp: 5 (More than 10,000 colonies estimated (thus >100,000 cfu/mL))
Aeromonas sp.; 0.5%, 14 days incubation
  Grade code Aeromonas sp: 4 (1001 to 10,000 colonies (thus 10,000 cfu/mL to 100,000 cfu/mL))
Aeromonas sp.; 0.5%, 30 days incubation
  Grade code Aeromonas sp: 4 (1001 to 10,000 colonies (thus 10,000 cfu/mL to 100,000 cfu/mL))
Aeromonas sp.; 1.25%, 3 days incubation
  Grade code Aeromonas sp: 4 (1001 to 10,000 colonies (thus 10,000 cfu/mL to 100,000 cfu/mL))
Aeromonas sp.; 1.25%, 14 days incubation
  Grade code Aeromonas sp: 3 (101 to 1000 colonies (thus 1000 to 10,000 cfu/mL))
Aeromonas sp.; 1.25%, 30 days incubation
  Grade code Aeromonas sp: 2 (52 to 100 colonies counted (thus 520 to 1000 cfu/mL))
Aeromonas sp.; 2.5%, 3 days incubation
  Grade code Aeromonas sp: 3 (101 to 1000 colonies (thus 1000 to 10,000 cfu/mL))
Aeromonas sp.; 2.5%, 14 days incubation
  Grade code Aeromonas sp: 1 (1 to 51 colonies counted (thus 10 to 510 cfu/mL))
Aeromonas sp.; 2.5%, 30 days incubation
  Grade code Aeromonas sp: 0 (No growth detected or <1 colony (thus <10 cfu/mL))
Aeromonas sp.; [1]
  Grade code, Aeromonas sp, 3 Days: 5 (More than 10,000 colonies estimated (thus >100,000 cfu/mL))
Aeromonas sp.; [2]
  Grade code, Aeromonas sp, 3 Days: 4 (1001 to 10,000 colonies (thus 10,000 cfu/mL to 100,000 cfu/mL))
Aeromonas sp.; [3]
  Grade code, Aeromonas sp, 3 Days: 3 (101 to 1000 colonies (thus 1000 to 10,000 cfu/mL))
Aeromonas sp.; [4]
  Grade code, Aeromonas sp, 14 Days: 4 (1001 to 10,000 colonies (thus 10,000 cfu/mL to 100,000 cfu/mL))
Aeromonas sp.; [5]
  Grade code, Aeromonas sp, 14 Days: 3 (101 to 1000 colonies (thus 1000 to 10,000 cfu/mL))
Aeromonas sp.; [6]
  Grade code, Aeromonas sp, 14 Days: 1 (1 to 51 colonies counted (thus 10 to 510 cfu/mL))
Aeromonas sp.; [7]
  Grade code, Aeromonas sp, 30 Days: 4 (1001 to 10,000 colonies (thus 10,000 cfu/mL to 100,000 cfu/mL))
Aeromonas sp.; [8]
  Grade code, Aeromonas sp, 30 Days: 2 (52 to 100 colonies counted (thus 520 to 1000 cfu/mL))
Aeromonas sp.; [9]
  Grade code, Aeromonas sp, 30 Days: 0 (No growth detected or <1 colony (thus <10 cfu/mL))
Bacillus subtilis; 0.5%, 3 days incubation
  Grade code B. subtilis: 4 (1001 to 10,000 colonies (thus 10,000 cfu/mL to 100,000 cfu/mL))
Bacillus subtilis; 0.5%, 14 days incubation
  Grade code B. subtilis: 4 (1001 to 10,000 colonies (thus 10,000 cfu/mL to 100,000 cfu/mL))
Bacillus subtilis; 0.5%, 30 days incubation
  Grade code B. subtilis: 4 (1001 to 10,000 colonies (thus 10,000 cfu/mL to 100,000 cfu/mL))
Bacillus subtilis; 1.25%, 3 days incubation
  Grade code B. subtilis: 4 (1001 to 10,000 colonies (thus 10,000 cfu/mL to 100,000 cfu/mL))
Bacillus subtilis; 1.25%, 14 days incubation
  Grade code B. subtilis: 4 (1001 to 10,000 colonies (thus 10,000 cfu/mL to 100,000 cfu/mL))
Bacillus subtilis; 1.25%, 30 days incubation
  Grade code B. subtilis: 4 (1001 to 10,000 colonies (thus 10,000 cfu/mL to 100,000 cfu/mL))
Bacillus subtilis; 2.5%, 3 days incubation
  Grade code B. subtilis: 3 (101 to 1000 colonies (thus 1000 to 10,000 cfu/mL))
Bacillus subtilis; 2.5%, 14 days incubation
  Grade code B. subtilis: 2 (52 to 100 colonies counted (thus 520 to 1000 cfu/mL))
Bacillus subtilis; 2.5%, 30 days incubation
  Grade code B. subtilis: 1 (1 to 51 colonies counted (thus 10 to 510 cfu/mL))
Bacillus subtilis; [1]
  Grade code, B. subtilis, 3 Day: 4 (1001 to 10,000 colonies (thus 10,000 cfu/mL to 100,000 cfu/mL))
Bacillus subtilis; [2]
  Grade code, B. subtilis, 3 Day: 4 (1001 to 10,000 colonies (thus 10,000 cfu/mL to 100,000 cfu/mL))
Bacillus subtilis; [3]
  Grade code, B. subtilis, 3 Day: 3 (101 to 1000 colonies (thus 1000 to 10,000 cfu/mL))
Bacillus subtilis; [4]
  Grade code, B. subtilis, 14 Day: 4 (1001 to 10,000 colonies (thus 10,000 cfu/mL to 100,000 cfu/mL))
Bacillus subtilis; [5]
  Grade code, B. subtilis, 14 Day: 4 (1001 to 10,000 colonies (thus 10,000 cfu/mL to 100,000 cfu/mL))
Bacillus subtilis; [6]
  Grade code, B. subtilis, 14 Day: 2 (52 to 100 colonies counted (thus 520 to 1000 cfu/mL))
Bacillus subtilis; [7]
  Grade code, B. subtilis, 30 Days: 4 (1001 to 10,000 colonies (thus 10,000 cfu/mL to 100,000 cfu/mL))
Bacillus subtilis; [8]
  Grade code, B. subtilis, 30 Days: 4 (1001 to 10,000 colonies (thus 10,000 cfu/mL to 100,000 cfu/mL))
Bacillus subtilis; [9]
  Grade code, B. subtilis, 30 Days: 1 (1 to 51 colonies counted (thus 10 to 510 cfu/mL))
Burkholderia cepacia; 0.5%, 3 days incubation
  Grade code B. cepacia: 4 (1001 to 10,000 colonies (thus 10,000 cfu/mL to 100,000 cfu/mL))
Burkholderia cepacia; 0.5%, 14 days incubation
  Grade code B. cepacia: 4 (1001 to 10,000 colonies (thus 10,000 cfu/mL to 100,000 cfu/mL))
Burkholderia cepacia; 0.5%, 30 days incubation
  Grade code B. cepacia: 4 (1001 to 10,000 colonies (thus 10,000 cfu/mL to 100,000 cfu/mL))
Burkholderia cepacia; 1.25%, 3 days incubation
  Grade code B. cepacia: 4 (1001 to 10,000 colonies (thus 10,000 cfu/mL to 100,000 cfu/mL))
Burkholderia cepacia; 1.25%, 14 days incubation
  Grade code B. cepacia: 2 (52 to 100 colonies counted (thus 520 to 1000 cfu/mL))
Burkholderia cepacia; 1.25%, 30 days incubation
  Grade code B. cepacia: 4 (1001 to 10,000 colonies (thus 10,000 cfu/mL to 100,000 cfu/mL))
Burkholderia cepacia; 2.5%, 3 days incubation
  Grade code B. cepacia: 0 (No growth detected or <1 colony (thus <10 cfu/mL))
Burkholderia cepacia; 2.5%, 14 days incubation
  Grade code B. cepacia: 0 (No growth detected or <1 colony (thus <10 cfu/mL))
Burkholderia cepacia; 2.5%, 30 days incubation
  Grade code B. cepacia: 0 (No growth detected or <1 colony (thus <10 cfu/mL))
Burkholderia cepacia; [1]
  Grade code, B. cepacia, 3 Days: 4 (1001 to 10,000 colonies (thus 10,000 cfu/mL to 100,000 cfu/mL))
Burkholderia cepacia; [2]
  Grade code, B. cepacia, 3 Days: 4 (1001 to 10,000 colonies (thus 10,000 cfu/mL to 100,000 cfu/mL))
Burkholderia cepacia; [3]
  Grade code, B. cepacia, 3 Days: 0 (No growth detected or <1 colony (thus <10 cfu/mL))
Burkholderia cepacia; [4]
  Grade code, B. cepacia, 14 Days: 4 (1001 to 10,000 colonies (thus 10,000 cfu/mL to 100,000 cfu/mL))
Burkholderia cepacia; [5]
  Grade code, B. cepacia, 14 Days: 2 (52 to 100 colonies counted (thus 520 to 1000 cfu/mL))
Burkholderia cepacia; [6]
  Grade code, B. cepacia, 14 Days: 0 (No growth detected or <1 colony (thus <10 cfu/mL))
Burkholderia cepacia; [7]
  Grade code, B. cepacia, 30 Days: 4 (1001 to 10,000 colonies (thus 10,000 cfu/mL to 100,000 cfu/mL))
Burkholderia cepacia; [8]
  Grade code, B. cepacia, 30 Days: 4 (1001 to 10,000 colonies (thus 10,000 cfu/mL to 100,000 cfu/mL))
Burkholderia cepacia; [9]
  Grade code, B. cepacia, 30 Days: 0 (No growth detected or <1 colony (thus <10 cfu/mL))
Escherichia coli; 0.5%, 3 days incubation
  Grade code E. coli: 5 (More than 10,000 colonies estimated (thus >100,000 cfu/mL))
Escherichia coli; 0.5%, 14 days incubation
  Grade code E. coli: 4 (1001 to 10,000 colonies (thus 10,000 cfu/mL to 100,000 cfu/mL))
Escherichia coli; 0.5%, 30 days incubation
  Grade code E. coli: 4 (1001 to 10,000 colonies (thus 10,000 cfu/mL to 100,000 cfu/mL))
Escherichia coli; 1.25%, 3 days incubation
  Grade code E. coli: 4 (1001 to 10,000 colonies (thus 10,000 cfu/mL to 100,000 cfu/mL))
Escherichia coli; 1.25%, 14 days incubation
  Grade code E. coli: 4 (1001 to 10,000 colonies (thus 10,000 cfu/mL to 100,000 cfu/mL))
Escherichia coli; 1.25%, 30 days incubation
  Grade code E. coli: 4 (1001 to 10,000 colonies (thus 10,000 cfu/mL to 100,000 cfu/mL))
Escherichia coli; 2.5%, 3 days incubation
  Grade code E. coli: 3 (101 to 1000 colonies (thus 1000 to 10,000 cfu/mL))
Escherichia coli; 2.5%, 14 days incubation
  Grade code E. coli: 2 (52 to 100 colonies counted (thus 520 to 1000 cfu/mL))
Escherichia coli; 2.5%, 30 days incubation
  Grade code E. coli: 0 (No growth detected or <1 colony (thus <10 cfu/mL))
Escherichia coli; [1]
  Grade code, E. coli, 3 Day: 5 (More than 10,000 colonies estimated (thus >100,000 cfu/mL))
Escherichia coli; [2]
  Grade code, E. coli, 3 Day: 4 (1001 to 10,000 colonies (thus 10,000 cfu/mL to 100,000 cfu/mL))
Escherichia coli; [3]
  Grade code, E. coli, 3 Day: 3 (101 to 1000 colonies (thus 1000 to 10,000 cfu/mL))
Escherichia coli; [4]
  Grade code, E. coli, 14 Day: 4 (1001 to 10,000 colonies (thus 10,000 cfu/mL to 100,000 cfu/mL))
Escherichia coli; [5]
  Grade code, E. coli, 14 Day: 4 (1001 to 10,000 colonies (thus 10,000 cfu/mL to 100,000 cfu/mL))
Escherichia coli; [6]
  Grade code, E. coli, 14 Day: 2 (52 to 100 colonies counted (thus 520 to 1000 cfu/mL))
Escherichia coli; [7]
  Grade code, E. coli, 30 Day: 4 (1001 to 10,000 colonies (thus 10,000 cfu/mL to 100,000 cfu/mL))
Escherichia coli; [8]
  Grade code, E. coli, 30 Day: 4 (1001 to 10,000 colonies (thus 10,000 cfu/mL to 100,000 cfu/mL))
Escherichia coli; [9]
  Grade code, E. coli, 30 Day: 0 (No growth detected or <1 colony (thus <10 cfu/mL))
Proteus vulgaris; 0.5%, 3 days incubation
  Grade code P. vulqaris: 4 (1001 to 10,000 colonies (thus 10,000 cfu/mL to 100,000 cfu/mL))
Proteus vulgaris; 0.5%, 13 days incubation
  Grade code P. vulqaris: 4 (1001 to 10,000 colonies (thus 10,000 cfu/mL to 100,000 cfu/mL))
Proteus vulgaris; 0.5%, 30 days incubation
  Grade code P. vulqaris: 4 (1001 to 10,000 colonies (thus 10,000 cfu/mL to 100,000 cfu/mL))
Proteus vulgaris; 1.25%, 3 days incubation
  Grade code P. vulqaris: 3 (101 to 1000 colonies (thus 1000 to 10,000 cfu/mL))
Proteus vulgaris; 1.25%, 13 days incubation
  Grade code P. vulqaris: 2 (52 to 100 colonies counted (thus 520 to 1000 cfu/mL))
Proteus vulgaris; 1.25%, 30 days incubation
  Grade code P. vulqaris: 0 (No growth detected or <1 colony (thus <10 cfu/mL))
Proteus vulgaris; 2.5%, 3 days incubation
  Grade code P. vulqaris: 1 (1 to 51 colonies counted (thus 10 to 510 cfu/mL))
Proteus vulgaris; 2.5%, 13 days incubation
  Grade code P. vulqaris: 0 (No growth detected or <1 colony (thus <10 cfu/mL))
Proteus vulgaris; 2.5%, 30 days incubation
  Grade code P. vulqaris: 0 (No growth detected or <1 colony (thus <10 cfu/mL))
